Activity calls are given as the source filed them. The rule behind the calls is not given here.
What was measured:
[1] = molecular target: Cruzipain (Trypanosoma cruzi) (UniProt P25779); test: Inhibition of Trypanosoma cruzi cruzipain using Z-Phe-Arg-AMC as substrate at 2 uM incubated for 5 mins prior to substrate addition measured after 10 mins by fluorescence assay
[2] = molecular target: Cruzipain (Trypanosoma cruzi) (UniProt P25779); test: Inhibition of Trypanosoma cruzi cruzipain using Z-Phe-Arg-AMC as substrate at 0.3 uM incubated for 5 mins prior to substrate addition measured after 10 mins by fluorescence assay
[3] = system: Trypanosoma cruzi; test: Antitrypanosomal activity against epimastigote stage of Trypanosoma cruzi Dm28c infected in African green monkey Vero cells after 72 hrs relative to untreated control; type: functional, organism-based
[4] = Cytotoxicity against African green monkey Vero cells after 72 hrs by resazurin assay; type: cell-based; conditions: chlorocebus sabaeus
[5] = Selectivity index, ratio of CC50 for African green monkey Vero cells to IC50 for epimastigote stage of Trypanosoma cruzi Dm28c; type: functional
[6] = system: Trypanosoma cruzi; test: Antitrypanosomal activity against amastigote stage of Trypanosoma cruzi Dm28c infected in African green monkey Vero cells assessed as growth inhibition at IC50 incubated 8 hrs post infection measured after 24 hrs relative to control; type: functional
[7] = system: Trypanosoma cruzi; test: Antitrypanosomal activity against amastigote stage of Trypanosoma cruzi Dm28c infected in African green monkey Vero cells assessed as growth inhibition at 2 times IC50 incubated 8 hrs post infection measured after 24 hrs relative to control; type: functional
[8] = system: Trypanosoma cruzi; test: Antitrypanosomal activity against amastigote stage of Trypanosoma cruzi Dm28c infected in African green monkey Vero cells assessed as growth inhibition at 4 times IC50 incubated 8 hrs post infection measured after 24 hrs relative to control; type: functional
[9] = molecular target: Cruzipain (Trypanosoma cruzi) (UniProt P25779); test: Inhibition of Trypanosoma cruzi cruzipain using Z-Phe-Arg-AMC as substrate at 10 uM incubated for 5 mins prior to substrate addition measured after 10 mins by fluorescence assay
[10] = molecular target: Cruzipain (Trypanosoma cruzi) (UniProt P25779); test: Slow binding inhibition of Trypanosoma cruzi cruzipain using Z-Phe-Arg-AMC as substrate at 5 to 500 nM after 30 mins by fluorescence assay
[11] = molecular target: T1, Cruzipain (Trypanosoma cruzi, UniProt P25779); test: Non-competitive inhibition of Trypanosoma cruzi cruzipain using Z-Phe-Arg-AMC as substrate assessed as function of Vmaxapp after 30 mins
[12] = molecular target: T1, Cruzipain; test: Non-competitive inhibition of Trypanosoma cruzi cruzipain using Z-Phe-Arg-AMC as substrate assessed as function of velocity after 30 mins
[13] = molecular target: Cruzipain (Trypanosoma cruzi) (UniProt P25779); test: Reversible inhibition of Trypanosoma cruzi cruzipain at 10 uM pre-incubated for 30 mins
[14] = system: Trypanosoma cruzi; test: Antitrypanosomal activity against amastigote stage of Trypanosoma cruzi Dm28c infected in African green monkey Vero cells assessed as growth inhibition at 1 uM incubated 8 hrs post infection measured after 24 hrs relative to control; type: functional; conditions: read-out: GI
[15] = system: Trypanosoma cruzi; test: Antitrypanosomal activity against amastigote stage of Trypanosoma cruzi Dm28c infected in African green monkey Vero cells assessed as growth inhibition at 15 uM incubated 8 hrs post infection measured after 24 hrs relative to control; type: functional; conditions: read-out: GI
[16] = system: Trypanosoma cruzi; test: Antitrypanosomal activity against amastigote stage of Trypanosoma cruzi Dm28c infected in African green monkey Vero cells assessed as growth inhibition at 30 uM incubated 8 hrs post infection measured after 24 hrs relative to control; type: functional; conditions: read-out: GI

Chain of Cruzipain (Trypanosoma cruzi) (P25779 123-467 limits assumed): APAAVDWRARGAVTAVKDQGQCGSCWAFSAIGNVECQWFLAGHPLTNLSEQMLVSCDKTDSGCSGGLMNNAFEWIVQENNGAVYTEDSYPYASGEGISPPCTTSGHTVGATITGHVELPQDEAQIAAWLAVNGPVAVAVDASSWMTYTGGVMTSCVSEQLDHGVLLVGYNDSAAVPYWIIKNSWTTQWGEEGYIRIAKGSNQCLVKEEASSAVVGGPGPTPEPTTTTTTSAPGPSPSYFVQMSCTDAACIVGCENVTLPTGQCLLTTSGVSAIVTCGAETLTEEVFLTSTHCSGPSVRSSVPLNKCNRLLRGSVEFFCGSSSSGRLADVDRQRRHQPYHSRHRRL
T1 sequence (P25779 whole entry): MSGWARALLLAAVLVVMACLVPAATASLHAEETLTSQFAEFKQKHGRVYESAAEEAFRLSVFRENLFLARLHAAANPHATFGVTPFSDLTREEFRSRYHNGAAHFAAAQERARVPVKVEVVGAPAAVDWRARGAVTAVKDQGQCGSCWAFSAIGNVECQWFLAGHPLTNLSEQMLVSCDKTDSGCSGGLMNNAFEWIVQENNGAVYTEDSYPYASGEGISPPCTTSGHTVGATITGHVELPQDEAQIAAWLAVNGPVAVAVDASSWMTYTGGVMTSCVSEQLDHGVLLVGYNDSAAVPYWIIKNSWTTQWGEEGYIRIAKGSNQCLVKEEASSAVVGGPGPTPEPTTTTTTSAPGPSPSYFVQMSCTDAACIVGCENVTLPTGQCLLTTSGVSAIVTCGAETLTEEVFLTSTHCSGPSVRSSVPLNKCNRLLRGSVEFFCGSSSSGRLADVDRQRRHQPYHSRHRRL

Row | SMILES | inhibition [1] [%] | inhibition [2] [%] | IC50 [3] [µM] | CC50 at 72 h [4] [µM] | Ratio CC50/IC50 [5] | growth inhibition (GI) [6] [%] | growth inhibition (GI) [7] [%] | growth inhibition (GI) [8] [%] | inhibition [9] [%] | inhibition [10] | Ki [11] [µM] | Ki [12] [µM] | inhibition [13] | inhibition of growth at 1 µM [14] [%] | inhibition of growth at 15 µM [15] [%] | inhibition of growth at 30 µM [16] [%]
1 | NC(=[Se])N/N=C/c1ccc(Cl)c(Cl)c1 | 96 | 57 | 2.3 | 95.1 | 41 | 63 | 69 | 72 | 99 | – | – | – | – | – | – | –
2 | NC(=[Se])N/N=C/c1cccc(Br)c1 | 93 | 40 | 5.9 | 172 | 29 | – | – | – | 93 | – | – | – | – | – | – | –
3 | CCCC/C(=N/NC(N)=[Se])c1ccc(Cl)c(Cl)c1 | 98 | 95 | 3.2 | 81.8 | 25 | 66 | 73 | 74 | 100 | Active | 0.0064 | 0.0037 | – | – | – | –
4 | C/C(=N\NC(N)=[Se])c1cccc(Br)c1 | 87 | 81 | 1.2 | 46.4 | 39 | 76 | 77 | 78 | 98 | Active | – | 0.0297 | Active | – | – | –
5 | O=C(Cn1ccnc1[N+](=O)[O-])NCc1ccccc1 [BENZNIDAZOLE] | – | – | 12.5 | 309 | 25 | – | – | – | – | – | – | – | – | 27 | 77 | 85
6 | C/C(=N/NC(N)=S)c1cccc(Br)c1 | 79 | 24 | – | – | – | – | – | – | 80 | – | – | 0.142 | – | – | – | –
7 | NC(=[Se])N/N=C/c1cccc(C(F)(F)F)c1 | 88 | 24 | 3.8 | 167 | 44 | 34 | 70 | 74 | 91 | – | – | – | – | – | – | –
8 | NC(=[Se])NN=C(c1cccc(Br)c1)c1cccc(Br)c1 | 98 | 90 | 5.2 | 71.2 | 14 | – | – | – | 99 | Active | – | 0.0133 | – | – | – | –
